# In EPA's ToxValDB 9.5 (doi:10.2903/j.efsa.2009.1167):
# Columns and labels:
# Mus musculus = details: chronic; duration: 18 months; organ weight
# Canidae = details: chronic, Dog Other
# [1] = reproduction developmental, reproduction
# [2] = chronic, duration: 2 years, histopathology: nonneoplastic
smiles,measurement,setting,value
Fc1ccc([C@@]2(Cn3cncn3)O[C@@H]2c2ccccc2Cl)cc1 [Epoxiconazole],NOAEL,Mus musculus,0.8 mg/kg-day
same,NOAEL,Rattus norvegicus; [1],2.3 mg/kg-day
CC(C)(C)C(O)C(Oc1ccc(Cl)cc1)n1cncn1 (stereo not given) [Triadimenol],NOAEL,Canidae; duration: 2 years,4 mg/kg-day
CCCC1COC(Cn2cncn2)(c2ccc(Cl)cc2Cl)O1 (stereo not given) [Propiconazole],NOAEL,"Rattus norvegicus; developmental, development",30 mg/kg-day
same,NOAEL,Rattus norvegicus; [1],> 2.8 mg/kg-day
CC(C)(C)C(O)(CCc1ccc(Cl)cc1)Cn1cncn1 (stereo not given) [Tebuconazole],NOAEL,Canidae; histopathology: nonneoplastic,3 mg/kg-day
C[Si](Cn1cncn1)(c1ccc(F)cc1)c1ccc(F)cc1 [Flusilazole],NOAEL,Canidae; duration: 1 years,0.2 mg/kg-day
same,NOAEL,"Rattus norvegicus; reproduction developmental, organ weight",0.5 mg/kg-day
CC(C)(C)[C@@H](O)/C(=C\c1ccc(Cl)cc1Cl)n1cncn1 [Diniconazole-M],NOAEL,Rattus norvegicus; [2],5 mg/kg-day
same,NOAEL,"Rattus norvegicus; developmental, development",5 mg/kg-day
CC(C1CC1)C(O)(Cn1cncn1)c1ccc(Cl)cc1 (stereo not given) [Cyproconazole],NOAEL,"Rattus norvegicus; chronic, organ weight",2 mg/kg-day
same,NOAEL,"Rattus norvegicus; developmental, development",2 mg/kg-day
CCCCC(C#N)(Cn1cncn1)c1ccc(Cl)cc1 (stereo not given) [Myclobutanil],NOAEL,Rattus norvegicus; [2],2.5 mg/kg-day
CC(C)(C)C(=O)C(Oc1ccc(Cl)cc1)n1cncn1 (stereo not given) [Triadimefon],NOAEL,Rattus norvegicus; acute,2 mg/kg-day
same,NOAEL,"Rattus norvegicus; subchronic, duration: 13 weeks",3.4 mg/kg-day
